Each structure is given as a SMILES string.

The assay deals with T1, IGFR kinase (Homo sapiens, UniProt P08069).
T1 construct: purchased Millipore
T1 sequence (P08069 31-1367): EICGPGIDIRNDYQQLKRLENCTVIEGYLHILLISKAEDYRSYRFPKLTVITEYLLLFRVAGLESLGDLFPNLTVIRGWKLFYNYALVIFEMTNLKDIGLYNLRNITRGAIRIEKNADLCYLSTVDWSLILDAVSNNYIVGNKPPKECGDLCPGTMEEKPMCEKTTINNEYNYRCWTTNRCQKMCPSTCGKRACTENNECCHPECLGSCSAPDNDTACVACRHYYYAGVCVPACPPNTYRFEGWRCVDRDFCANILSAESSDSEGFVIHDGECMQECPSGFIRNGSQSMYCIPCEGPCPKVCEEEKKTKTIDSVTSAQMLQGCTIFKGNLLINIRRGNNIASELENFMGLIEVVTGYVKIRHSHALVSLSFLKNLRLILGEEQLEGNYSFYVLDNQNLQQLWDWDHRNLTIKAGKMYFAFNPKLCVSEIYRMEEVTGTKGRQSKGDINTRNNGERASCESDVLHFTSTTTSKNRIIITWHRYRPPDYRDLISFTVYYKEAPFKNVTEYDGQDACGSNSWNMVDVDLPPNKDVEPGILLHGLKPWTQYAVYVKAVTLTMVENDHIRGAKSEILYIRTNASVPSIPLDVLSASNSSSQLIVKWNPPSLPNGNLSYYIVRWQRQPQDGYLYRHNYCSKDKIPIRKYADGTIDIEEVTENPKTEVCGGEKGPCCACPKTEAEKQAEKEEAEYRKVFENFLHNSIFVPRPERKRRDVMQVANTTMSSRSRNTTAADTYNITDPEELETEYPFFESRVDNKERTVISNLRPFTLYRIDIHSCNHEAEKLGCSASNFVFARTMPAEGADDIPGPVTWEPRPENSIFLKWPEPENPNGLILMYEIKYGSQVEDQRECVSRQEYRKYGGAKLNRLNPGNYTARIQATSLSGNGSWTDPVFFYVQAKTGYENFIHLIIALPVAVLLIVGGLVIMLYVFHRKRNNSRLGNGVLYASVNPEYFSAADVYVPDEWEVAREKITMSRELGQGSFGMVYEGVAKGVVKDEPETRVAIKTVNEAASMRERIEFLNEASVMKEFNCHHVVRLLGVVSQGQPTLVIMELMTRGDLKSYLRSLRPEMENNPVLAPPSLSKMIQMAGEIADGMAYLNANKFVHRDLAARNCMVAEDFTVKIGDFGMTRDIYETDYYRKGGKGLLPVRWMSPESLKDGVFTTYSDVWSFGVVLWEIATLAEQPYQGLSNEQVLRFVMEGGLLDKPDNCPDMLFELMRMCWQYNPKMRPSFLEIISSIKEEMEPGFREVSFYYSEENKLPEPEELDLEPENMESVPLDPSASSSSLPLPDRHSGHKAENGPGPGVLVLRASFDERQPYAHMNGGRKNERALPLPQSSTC
Kind of assay: Enzyme assay (c), IGFR kinase, Caliper LabChip. The class given is biochemical. The conditions noted are these: 30 nM IGFR kinase, 6 uM ATP, 3 uM peptide mix; read-out: IGFR IC50. The method, then:
For Echo dosing the solvent was 100% DMSO. A master plate was prepared with 40 ul of 10 mM stock solution of the test compound in DMSO in quadrant 1 of a Labcyte 384 well plate. A 1 in 100 dilution was made from quadrant 1 into quadrant 2 by removing 0.4 ul and adding it to 39.6 ul of DMSO. Subsequent 1 in 100 dilutions were made into quadrant 3 from quadrant 2 and quadrant 4 from quadrant 3.
Multiple 2.5 nl droplets were dispensed from each quadrant of the master plate to generate the dose range that was required in the test. The dose range most commonly used was as follows: 100 uM, 30 uM, 10 uM, 3 uM, 1 uM, 0.3 uM, 0.1 uM, 0.03 uM, 0.01 uM, 0.003 uM, 0.001 uM, 0.0001 uM. Each well was backfilled with dimethyl sulfoxide (DMSO) to a total volume of 120 nl, such that when the enzyme and substrate mix was added the final DMSO concentration was 1%.
DMSO was added to max control wells as 120 nl, minimum control wells were treated with 120 nl of compound at a concentration that inhibited the enzyme activity 100%.
Integration of the substrate and product peaks was carried out using Caliper LabChip software and IC50 curves were calculated using Origin™ software.
Take `COc1cc(OC2CCN(C(C)=O)CC2)ccc1Nc1ncc(C)c(-c2cnc3ccccn23)n1` [Example 103, 1-[4-[4-[(4-imidazo[1,2-a]pyridin-3-yl-5-methyl-pyrimidin-2-yl)amino]-3-methoxy-phenoxy]-1-piperidyl]ethanone]: the IC50 worked out at 77 nM.
For `COc1cc(N2CCN(CCO)CC2)ccc1Nc1ncc(Cl)c(-c2cnc3c(F)cccn23)n1` [Example 194, 2-[4-[4-[[5-chloro-4-(8-fluoroimidazo[1,2-a]pyridin-3-yl)pyrimidin-2-yl]amino]-3-methoxy-phenyl]piperazin-1-yl]ethanol] the value was 15 nM; for `COc1cc(N2CCN(C(=O)CNC(C)=O)CC2)ccc1Nc1ncc(Cl)c(-c2cnc3ccccn23)n1` [Example 25.2, N-[2-[4-[4-[(5-chloro-4-imidazo[1,2-a]pyridin-3-yl-pyrimidin-2-yl)amino]-3-methoxy-phenyl]piperazin-1-yl]-2-oxo-ethyl]acetamide], 13 nM.
The figure for `COc1cc(N2CCN(C(=O)[C@@H](C)O)CC2)ccc1Nc1ncc(Cl)c(-c2cnc3cc(C)ccn23)n1` [Example 257, (2R)-1-[4-[4-[[5-chloro-4-(7-methylimidazo[1,2-a]pyridin-3-yl)pyrimidin-2-yl]amino]-3-methoxy-phenyl]piperazin-1-yl]-2-hydroxy-propan-1-one] is 10 nM.
For `COc1cc2c(cc1Nc1ncc(F)c(-c3cnn4ccccc34)n1)N(C(=O)CN(C)C)CC2` [Example 176, 2-(dimethylamino)-1-[6-[(5-fluoro-4-pyrazolo[1,5-a]pyridin-3-yl-pyrimidin-2-yl)amino]-5-methoxy-indolin-1-yl]ethanone] the value was 22 nM; for `COc1cc(C(CO)CNC(C)=O)ccc1Nc1ncc(Cl)c(-c2cnc3ccccn23)n1` (stereo not shown) [Example 276, N-[2-[4-[(5-chloro-4-imidazo[1,2-a]pyridin-3-yl-pyrimidin-2-yl)amino]-3-methoxy-phenyl]-3-hydroxy-propyl]acetamide], 15 nM.
For `CNCC(=O)N1CCC(c2ccc(Nc3ncc(Cl)c(-c4cnc5c(F)cccn45)n3)c(OC)c2)CC1` [Example 182, 1-[4-[4-[[5-chloro-4-(8-fluoroimidazo[1,2-a]pyridin-3-yl)pyrimidin-2-yl]amino]-3-methoxy-phenyl]-1-piperidyl]-2-(methylamino)ethanone], the IC50 was 1 nM.
The figure for `COc1cc(N2CCN(CCO)[C@H](C)C2)ccc1Nc1ncc(F)c(-c2cnc3ccccn23)n1` [Example 272, 2-[(2R)-4-[4-[(5-fluoro-4-imidazo[1,2-a]pyridin-3-yl-pyrimidin-2-yl)amino]-3-methoxy-phenyl]-2-methyl-piperazin-1-yl]ethanol] is 270 nM; for `COc1cc(N2CCOCC2)ccc1Nc1ncc(C)c(-c2cnc3ccccn23)n1` [Example 100, 4-imidazo[1,2-a]pyridin-3-yl-N-(2-methoxy-4-morpholino-phenyl)-5-methyl-pyrimidin-2-amine] it is 57 nM; for `COc1cc(C2CCN(C(=O)CO)CC2)ccc1Nc1ncc(Cl)c(-c2cnc3ccccn23)n1` [Example 28.5, 1-[4-[4-[(5-chloro-4-imidazo[1,2-a]pyridin-3-yl-pyrimidin-2-yl)amino]-3-methoxy-phenyl]-1-piperidyl]-2-hydroxy-ethanone] it is 4 nM.
The figure for `COc1cc(O[C@H]2CCN(S(C)(=O)=O)C2)ccc1Nc1ncc(Cl)c(-c2cnc3ccccn23)n1` [Example 14, 5-chloro-4-imidazo[1,2-a]pyridin-3-yl-N-[2-methoxy-4-[(3S)-1-methylsulfonylpyrrolidin-3-yl]oxy-phenyl]pyrimidin-2-amine] is 19 nM; for `CC(=O)N1CCN(c2ccc(Nc3ncc(Cl)c(-c4cnc5ccccn45)n3)c(OC(C)C)c2)CC1` [Example 3.34, 1-[4-[4-[(5-chloro-4-imidazo[1,2-a]pyridin-3-yl-pyrimidin-2-yl)amino]-3-isopropoxy-phenyl]piperazin-1-yl]ethanone] it is 22 nM; for `COc1cc(N2CCNCC2)ccc1Nc1ncc(Cl)c(-c2cnn3ccccc23)n1` [Example 129, 5-chloro-N-(2-methoxy-4-piperazin-1-yl-phenyl)-4-pyrazolo[1,5-a]pyridin-3-yl-pyrimidin-2-amine] it is 3 nM.
For `COc1cc(O[C@H]2CCN(C(C)=O)C2)ccc1Nc1ncc(Cl)c(-c2cnc3ccccn23)n1` [Example 13, 1-[(3S)-3-[4-[(5-chloro-4-imidazo[1,2-a]pyridin-3-yl-pyrimidin-2-yl)amino]-3-methoxy-phenoxy]pyrrolidin-1-yl]ethanone] the value was 20 nM; for `COc1cc(C2CCN(C(=O)[C@@H](C)O)CC2)ccc1Nc1ncc(C)c(-c2cnc3c(F)cccn23)n1` [Example 200, (2R)-1-[4-[4-[[4-(8-fluoroimidazo[1,2-a]pyridin-3-yl)-5-methyl-pyrimidin-2-yl]amino]-3-methoxy-phenyl]-1-piperidyl]-2-hydroxy-propan-1-one], 32 nM.
With `COc1cc(N2CCN(C(=O)[C@@H](O)CO)CC2)ccc1Nc1ncc(Cl)c(-c2cnc3ccccn23)n1` [Example 56, (2S)-1-[4-[4-[(5-chloro-4-imidazo[1,2-a]pyridin-3-yl-pyrimidin-2-yl)amino]-3-methoxy-phenyl]piperazin-1-yl]-2,3-dihydroxy-propan-1-one], the IC50 was 6 nM.
The figure for `COc1ccc(N2CC[C@@H](N(C)C)C2)cc1Nc1ncc(Cl)c(-c2cnc3ccccn23)n1` [Example 3.13, 5-chloro-N-[5-[(3R)-3-dimethylaminopyrrolidin-1-yl]-2-methoxy-phenyl]-4-imidazo[1,2-a]pyridin-3-yl-pyrimidin-2-amine] is 60 nM.
As to `COc1ccc(N2CCNCC2)cc1Nc1ncc(Cl)c(-c2cnn3ccccc23)n1` [Example 147, 5-chloro-N-(2-methoxy-5-piperazin-1-yl-phenyl)-4-pyrazolo[1,5-a]pyridin-3-yl-pyrimidin-2-amine], the IC50 came to 14 nM.
The figure for `COc1cc(N2CCN(C(=O)[C@H](N)CO)CC2)ccc1Nc1ncc(Cl)c(-c2cnc3ccccn23)n1` [Example 24.12, (2R)-2-amino-1-[4-[4-[(5-chloro-4-imidazo[1,2-a]pyridin-3-yl-pyrimidin-2-yl)amino]-3-methoxy-phenyl]piperazin-1-yl]-3-hydroxy-propan-1-one] is 6 nM; for `COc1cc(N2CCCC2)ccc1Nc1ncc(F)c(-c2cnc3ccccn23)n1` [Example 80, 5-fluoro-4-imidazo[1,2-a]pyridin-3-yl-N-(2-methoxy-4-pyrrolidin-1-yl-phenyl)pyrimidin-2-amine] it is 133 nM.
The figure for `COc1cc(OC2CCN(S(C)(=O)=O)CC2)ccc1Nc1ncc(Cl)c(-c2cnc3ccccn23)n1` [Example 8, 5-chloro-4-imidazo[1,2-a]pyridin-3-yl-N-[2-methoxy-4-[(1-methylsulfonyl-4-piperidyl)oxy]phenyl]pyrimidin-2-amine] is 20 nM; for `COc1cc(N2CCN(C(=O)[C@@H](C)N)CC2)ccc1Nc1ncc(C)c(-c2cnn3ccccc23)n1` [Example 235, (2R)-2-amino-1-[4-[3-methoxy-4-[(5-methyl-4-pyrazolo[1,5-a]pyridin-3-yl-pyrimidin-2-yl)amino]phenyl]piperazin-1-yl]propan-1-one] it is 13 nM.

(Values after patent US20100105655A1, “NOVEL COMPOUNDS 515” (ASTRAZENECA AB, priority 2008, published 2010).)
